# Experimental data as given in patent US20060128695A1, “Cyclic nucleotide phosphodiesterase inhibitors, preparation and uses” (NEURO3D, priority 2002, published 2006).
# Columns and labels:
# PDE2 = molecular target: T1, PDE2 (Bos taurus, UniProt P14099); assay: Inhibition of PDE2, radioenzymatic phosphodiesterase assay; assay type: biochemical, bovine
# T1 construct: PDE2 was prepared from bovine endothelial cells by the same methods; endogenous in cells; host or cells: bovine endothelial cells
# T1 sequence (P14099 1-921): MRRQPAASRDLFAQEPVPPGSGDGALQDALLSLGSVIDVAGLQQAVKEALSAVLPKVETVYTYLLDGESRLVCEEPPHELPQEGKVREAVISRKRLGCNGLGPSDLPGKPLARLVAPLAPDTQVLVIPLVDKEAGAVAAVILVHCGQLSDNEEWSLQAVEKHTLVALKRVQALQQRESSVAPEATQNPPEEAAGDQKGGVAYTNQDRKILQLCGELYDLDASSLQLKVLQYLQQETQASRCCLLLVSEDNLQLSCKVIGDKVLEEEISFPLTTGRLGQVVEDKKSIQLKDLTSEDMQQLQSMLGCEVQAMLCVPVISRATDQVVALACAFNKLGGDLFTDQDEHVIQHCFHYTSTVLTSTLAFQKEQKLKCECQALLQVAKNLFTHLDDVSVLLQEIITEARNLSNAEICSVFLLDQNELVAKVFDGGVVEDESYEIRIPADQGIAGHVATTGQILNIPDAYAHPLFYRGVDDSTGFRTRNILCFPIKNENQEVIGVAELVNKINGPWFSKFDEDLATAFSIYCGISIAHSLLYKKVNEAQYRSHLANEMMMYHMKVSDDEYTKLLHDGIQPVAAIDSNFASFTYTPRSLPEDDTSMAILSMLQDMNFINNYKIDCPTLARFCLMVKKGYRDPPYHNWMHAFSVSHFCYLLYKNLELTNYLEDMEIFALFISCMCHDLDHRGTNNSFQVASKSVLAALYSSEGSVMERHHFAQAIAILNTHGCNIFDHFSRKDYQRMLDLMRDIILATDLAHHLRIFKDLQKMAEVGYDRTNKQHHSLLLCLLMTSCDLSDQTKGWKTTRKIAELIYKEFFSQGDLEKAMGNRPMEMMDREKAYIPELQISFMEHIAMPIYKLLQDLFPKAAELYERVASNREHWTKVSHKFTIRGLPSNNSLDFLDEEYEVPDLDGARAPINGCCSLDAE
# mice [1] = assay: Light/dark test; assay type: in vivo, Balb/c or Swiss mice; details: mice, 0.3, 3 and 30 mg/kg orally 1 hour before the test, versus controls (p<0.01)
# From the text: This light/dark test is based on the natural tendency of rodents to prefer a dark environment and thereby evaluates the emotional responses of the animals in a situation of bright light. This procedure is suitable for assessing the state of anxiety elicited by anxiety stimuli (Lister's group, 1990). Mice placed in the apparatus, while showing a preference for the dark zone, nonetheless explore the light zone.
# Ten to eleven-week old Balb/c or Swiss mice were used. Mice were randomly divided into a control group (treated with the vehicle) and other groups treated with the test compounds.
# The test apparatus consisted of two PVC compartments (20×20×14 cm). with a plexiglass lid. One of the compartments was dark. A 100W light bulb was placed 15 cm above the other compartment, emitting the only light in the room (approximately 4400 lux). An opaque plastic tunnel separated the light and dark compartments.
# The animal was placed in the light compartment with its head pointed towards the tunnel. The time spent in the light compartment and the number of entries into the light compartment were recorded for 5 minutes after the first entry into the dark zone. The test compound or the control treatment were administered orally 1 hour before the test.
# N=10; ** p<0.01; **** p<0.001 (Dunnett test versus control).
# PDE1 = assay: Selectivity: inhibition of PDE1, radioenzymatic phosphodiesterase assay; assay type: biochemical, bovine; details: 10 μM test compound; vascular smooth muscle
# Description: A 3 g segment of bovine aortic media cut into pieces with scissors was homogenized with an ultra-turrax then a potter glass/glass homogenizer in 7 volumes by weight of buffer A containing a protease inhibitor cocktail (20 mM Tris-HCl, 0.25 M saccharose, 2 mM magnesium acetate, 1 mM dithiothreitol, 5 mM EGTA, 2000 U/ml aprotinin, 10 mg/l leupeptin and 10 mg/l soya trypsic inhibitor). The homogenizate was centrifuged at 105,000 g for 1 hour. The supernatant was loaded on a DEAE-Sephacel column (15 x 1.6 cm) pre-equilibrated with buffer B (buffer A without the saccharose, EGTA and protease inhibitors). The column was washed until there was no detectable absorption at 280 nm, then eluted with a linear gradient of NaCl (0-0.5 M) in buffer B. 3-ml fractions were collected and enzyme activity was determined under the conditions described hereinbelow to localize the different enzymes PDE1, PDE3, PDE4 and PDE5 which were aliquoted and frozen at −80° C. (Lugnier et al., Biochem. Phamacol., 1986, 35: 1746-1751). PDE2 was prepared from bovine endothelial cells by the same methods (Lugnier and Schini, Biochem. Pharmacol., 1990, 39: 75-84).
# Cyclic nucleotide phosphodiesterase activity was determined by a radioenzymatic method using tritium-labelled cyclic GMP or AMP (1 μM) as substrate (Lugnier et al., 1986). ^3H-labelled adenosine or guanosine monophosphate formed by hydrolysis of the radiolabelled cyclic nucleotide was then converted to ^3H-labelled adenosine or guanosine in a second reaction with […] in excess. The nucleoside formed was separated from the nucleotides by anion exchange chromatography. Nucleoside radioactivity was determined by liquid scintillation counting. […]
# The activity of the compounds was evaluated on other phosphodiesterase isoforms, particularly basal state or calmodulin-activated PDEl from vascular smooth muscle, PDE3, PDE4 and PDE5 from vascular smooth muscle.
# The results obtained are presented in Tables 1 and 2 hereinbelow and are expressed as the percentage inhibition of enzymatic activity produced by […] of the test compound.
# mice [2] = assay: Elevated plus maze test; assay type: in vivo, Balb/c or Swiss mice; details: oral, 1 hour before the test, all doses tested, recorded over 8 minutes, versus control
# From the text: This test was validated in the rat by Pellow in 1986 and in the mouse by Lister in 1987. It is based on an aversion to open spaces: the open arms elicit anxiety in the animals while the closed arms represent safety. By recording the frequency of entry into each arm, this test evaluates the anxiolytic effect of a molecule in comparison with a reference compound such as buspirone.
# Ten to eleven-week old Balb/c or Swiss mice were used for the test. Mice were randomly divided into a control group (treated with the vehicle) and other groups treated with the test compounds.
# The test apparatus was a PVC maze with a plexiglass lid, divided into four equivalent exploration arms (45×10 cm), all interconnected by a small platform (10×10 cm). The apparatus was placed 66 crn above the floor. Two arms were opened and the other two closed with a wall (height: 30 cm).
# After administration, the mouse was placed on the platform opposite the closed arm. The number of entries and the time spent in each open arm were recorded over 8 minutes.
# The treatment was administered 1 hour before the test. The compounds were given orally at different doses. N=10; *** p<0.005 and **** p<0.001 (versus control; Dunnett test).
smiles,measurement,setting,value
"COc1cc2c(cc1OC)N(C)C(=O)CN=C2c1cccc(C(N)=O)c1 [Compound 5a, 3-(7,8-dimethoxy-1-methyl-2-oxo-2,3-dihydro-1H-1,4-benzodiazepin-5-yl)-benzamide]",IC50,PDE2,1500 nM
same,time spent in the light compartment,mice [1],significantly more time in the light compartment
same,PDE1 percentage inhibition at 10 μM,PDE1,13.2%
same,percentage of time spent in the open arms,mice [2],spent more time in the open arms
